Laboratory results as given in ChEMBL document CHEMBL1201862, “PubChem BioAssay data set” (2004).
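Five concentrations, 48 hours, 96-well plates. GI50 marks 50% less growth.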 Calls of active or inactive are those of the source. Rule as the data show it: active = GI50 up to about 1.1 µM and inactive = higher.

What was measured:
Assay in all cases: NCI anticancer screen, dose series, 48 h
[1] = test system: ACHN
[2] = test system: SW-620
[3] = test system: SF-295
[4] = test system: TK-10
[5] = test system: IGROV-1
[6] = test system: SF-539
[7] = test system: NCI-H23
[8] = test system: OVCAR-3
[9] = test system: K562
[10] = test system: OVCAR-8
[11] = test system: SN12C
[12] = test system: SNB-75
[13] = test system: UO-31
[14] = test system: HOP-92
[15] = test system: NCI-H460
[16] = test system: RPMI-8226

Measured: GI50

COC1=CC(=O)NCCN1
inactive: [1] > 100 µM | [2] 18.2 µM | [3] > 100 µM | [4] > 100 µM | [5] > 100 µM | [6] > 100 µM | [7] > 100 µM | [8] > 100 µM | [9] > 100 µM | [10] > 100 µM | [11] > 100 µM | [12] > 100 µM | [13] > 100 µM | [14] > 100 µM | [15] 29.3 µM

O=C(NCCOC(=O)CCCCCCCCC(=O)OCCNC(=O)NC(=O)c1cn(Cc2ccccc2)c(=O)[nH]c1=O)NC(=O)c1cn(Cc2ccccc2)c(=O)[nH]c1=O
inactive: [16] > 100 µM | [1] > 100 µM | [2] > 100 µM | [3] > 100 µM | [4] > 100 µM | [5] > 100 µM | [6] > 100 µM | [7] > 100 µM | [8] > 100 µM | [9] > 100 µM | [10] > 100 µM | [11] > 100 µM | [12] > 100 µM | [13] > 100 µM | [15] > 100 µM

Cc1ccc(NC(=O)c2cc3cc(/N=N/c4ccc(Br)cc4)ccc3oc2=O)cc1
inactive: [16] > 100 µM | [1] 53 µM | [2] 86.9 µM | [3] > 100 µM | [4] > 100 µM | [7] > 100 µM | [11] > 100 µM | [12] > 100 µM | [14] > 100 µM | [15] > 100 µM

Nc1nc(=O)n(C2CC(O)C(O)C(CO)O2)cc1F (stereo not drawn)
inactive: [16] > 100 µM | [1] > 100 µM | [2] > 100 µM | [3] > 100 µM | [4] > 100 µM | [5] > 100 µM | [6] > 100 µM | [7] > 100 µM | [8] > 100 µM | [9] > 100 µM | [10] > 100 µM | [11] > 100 µM | [12] > 100 µM | [13] > 100 µM | [15] > 100 µM

CCOC(=O)NC(=O)c1cn(CCCOC(=O)CCCCCCCCC(=O)OCCCn2cc(C(=O)NC(=O)OCC)c(=O)[nH]c2=O)c(=O)[nH]c1=O
inactive: [16] 5.22 µM | [1] 21.1 µM | [2] 15 µM | [3] 22.8 µM | [4] 22.3 µM | [5] 20.9 µM | [6] 23.8 µM | [7] > 10 µM | [8] 15.8 µM | [9] 4.01 µM | [10] 23 µM | [11] 28.2 µM | [12] 32.5 µM | [15] 39.4 µM

CC1(C)OC(=O)[C@@](C)([C@H](O)c2ccccc2)O1
inactive: [1] > 100 µM | [2] > 100 µM | [3] > 100 µM | [4] > 100 µM | [5] 94.6 µM | [6] > 100 µM | [7] > 100 µM | [8] 35.8 µM | [9] 67.9 µM | [10] > 100 µM | [11] > 100 µM | [12] 65 µM | [13] > 100 µM | [14] 28.6 µM | [15] > 100 µM

CCOP1(=O)C=C(C)C(=C(Cl)Cl)C(C)=C1 (stereo not drawn)
inactive: [16] 3.29 µM | [1] 17.1 µM | [2] 7.45 µM | [3] 6.24 µM | [4] 21.3 µM | [5] 24 µM | [6] 18.1 µM | [7] 15.8 µM | [8] 20.6 µM | [9] 3.52 µM | [10] 20.7 µM | [11] 15 µM | [12] 3.33 µM | [13] 13.9 µM | [15] 17.5 µM

CN(C)CC(/C(Cc1ccccc1)=N\NC(=O)C[n+]1ccccc1)c1ccccc1 (stereo not drawn)
inactive: [1] > 100 µM | [3] > 100 µM | [4] > 100 µM | [5] > 100 µM | [6] > 100 µM | [7] > 100 µM | [8] > 100 µM | [9] > 100 µM | [10] 35.1 µM | [11] > 100 µM | [12] > 100 µM | [13] > 100 µM | [14] > 100 µM | [15] > 100 µM

CCOCN1COCN/C1=N/C#N
inactive: [1] > 100 µM | [2] 17.9 µM | [3] > 100 µM | [4] > 100 µM | [5] > 100 µM | [6] > 100 µM | [7] > 100 µM | [8] > 100 µM | [9] > 100 µM | [10] > 100 µM | [11] > 100 µM | [12] > 100 µM | [13] > 100 µM | [14] > 100 µM | [15] > 100 µM

CC(C)CCCC(C)[C@H]1CCC2[C@@H]3CCC4Nc5c(cnn5-c5ccccc5)C[C@]4(C)C3CC[C@@]21C (stereo partly drawn)
inactive: [16] 3.61 µM | [1] 29.8 µM | [2] 21.5 µM | [3] 2.84 µM | [4] > 100 µM | [5] > 100 µM | [6] 12.9 µM | [7] 26.1 µM | [8] 32.5 µM | [9] 28.1 µM | [10] 61 µM | [11] 83 µM | [12] 2.88 µM | [13] 15 µM | [15] 14.1 µM
